Legend:
DDB1ΔB-CRBN = DDB1ΔB-CRBN (Homo sapiens (Human), UniProt Q96SW2); assay: Atto565-Lenalidomide displacement assay (fluorescence polarization, CRBN binding); conditions: for IC50: 10 nM Atto565-Lenalidomide, 100 nM DDB1ΔB-CRBN, n=2; for Ki: calculated from IC50 with probe Kd of 40 nM, competitive model
Protocol: Various inventive compounds were analyzed for cereblon binding. […] Compound titrations were incubated for 60 min at room temperature. The change in fluorescence polarization was monitored using a PHERAstar® FS microplate reader (BMG Labtech) for 1 h in 120s cycles.

CRBN = CRBN (Homo sapiens (Human), UniProt Q96SW2); assay: Cellular CRBN dBET6 displacement assay (BRD4BD2-GFP/mCherry reporter cells); type: cell-based; conditions: Flip-In 293 cells stably expressing BRD4BD2-GFP, 100 nM dBET6, 5 hours; read-out: Cellular CRBN-BRD4 dBET6 displacement EC50
Protocol: BRD4BD2 were subcloned into mammalian pcDNA5/FRT Vector (Ampicillin and Hygromycin B resistant) modified to contain MCS-eGFP-P2A-mCherry. […] Following a 2-3 passage cycle, FACS (FACSAria™ II, BD) was used to enrich for cells expressing eGFP and mCherry.
Signal from minimal 3000 events per well was acquired and the eGFP and mCherry florescence monitored. Data was analyzed using FlowJo® (FlowJo®, LCC). […] The eGFP protein abundance relative to mCherry was then quantified as a ten-fold amplified ratio for each individual cell using the formula: 10×eGFP/mCherry. The median of the ratio was then calculated per set, normalized to the median of the DMSO ratio.
This assay provided a readout of cellular CRBN binding impacted by the permeability of the molecule tested.

Chain of DDB1ΔB-CRBN (Q96SW2 whole entry, stated change not applied): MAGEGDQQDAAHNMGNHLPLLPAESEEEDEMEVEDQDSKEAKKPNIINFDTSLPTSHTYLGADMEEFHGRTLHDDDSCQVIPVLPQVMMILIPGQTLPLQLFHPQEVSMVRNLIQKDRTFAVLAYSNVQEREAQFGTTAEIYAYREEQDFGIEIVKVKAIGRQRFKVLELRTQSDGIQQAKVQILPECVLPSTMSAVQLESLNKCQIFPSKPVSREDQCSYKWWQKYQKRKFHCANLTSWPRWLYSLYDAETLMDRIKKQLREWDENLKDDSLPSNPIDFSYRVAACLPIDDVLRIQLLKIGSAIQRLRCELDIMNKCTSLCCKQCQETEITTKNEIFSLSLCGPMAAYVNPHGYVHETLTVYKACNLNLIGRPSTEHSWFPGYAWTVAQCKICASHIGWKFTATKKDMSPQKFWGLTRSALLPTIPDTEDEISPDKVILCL
Chain of CRBN (Q96SW2 whole entry): as the sequence (Q96SW2 whole entry, stated change not applied) above

Row | Structure (SMILES) | IC50 (DDB1ΔB-CRBN) [µM] | Ki (DDB1ΔB-CRBN) [µM] | EC50 (CRBN) [µM]
1 | CC(=O)c1ccc(-c2nccc(NCC(=O)Nc3cccc4c3CN(C3CCC(=O)NC3=O)C4=O)n2)cc1 (centres unmarked) [Compound 12, 2-((2-(4-acetylphenyl)pyrimidin-4-yl)amino)-N-(2-(2,6-dioxopiperidin-3-yl)-1-oxoisoindolin-4-yl)acetamide] | 13.8 | 3.9 | 
2 | O=C1CCC(N2Cc3c(NC(=O)CNc4ccnc(N5CCC[C@H]5CO)n4)cccc3C2=O)C(=O)N1 (stereo partly drawn) [Compound 4, N-(2-(2,6-dioxopiperidin-3-yl)-1-oxoisoindolin-4-yl)-2-((2-((S)-2-(hydroxymethyl)pyrrolidin-1-yl)pyrimidin-4-yl)amino)acetamide] | 8.5 | 2.4 | 
3 | O=C1CCC(N2Cc3c(NC(=O)CNc4ccnc(Nc5ccccc5F)n4)cccc3C2=O)C(=O)N1 (centres unmarked) [Compound 1, N-(2-(2,6-dioxopiperidin-3-yl)-1-oxoisoindolin-4-yl)-2-((2-((2-fluorophenyl)amino)pyrimidin-4-yl)amino)acetamide] | 29.7 | 8.5 | 
4 | O=C1CCC(N2Cc3c(NC(=O)CNc4ccnc(N5CCN(c6cccc(C(F)(F)F)c6)CC5)n4)cccc3C2=O)C(=O)N1 (centres unmarked) [Compound 16, N-(2-(2,6-dioxopiperidin-3-yl)-1-oxoisoindolin-4-yl)-2-((2-(4-(3-(trifluoromethyl)phenyl)piperazin-1-yl)pyrimidin-4-yl)amino)acetamide] | 0.517 | 0.13 | 
5 | O=C1CCC(N2Cc3c(NC(=O)CNc4ccnc(N5CCC[C@@H]5CO)n4)cccc3C2=O)C(=O)N1 (stereo partly drawn) [Compound 14, N-(2-(2,6-dioxopiperidin-3-yl)-1-oxoisoindolin-4-yl)-2-((2-((R)-2-(hydroxymethyl)pyrrolidin-1-yl)pyrimidin-4-yl)amino)acetamide] | 1.6 | 0.44 | 

More lines, now with the values ahead:

Row | IC50 (DDB1ΔB-CRBN) [µM] | Ki (DDB1ΔB-CRBN) [µM] | EC50 (CRBN) [µM] | Structure (SMILES)
6 | 12.5 | 13.6 |  | O=C1CCC(N2Cc3c(NC(=O)CNc4ccnc(NCc5ccc6c(c5)OCO6)n4)cccc3C2=O)C(=O)N1 (centres unmarked) [Compound 3, 2-((2-((benzo[d][1,3]dioxol-5-ylmethyl)amino)pyrimidin-4-yl)amino)-N-(2-(2,6-dioxopiperidin-3-yl)-1-oxoisoindolin-4-yl)acetamide]
7 | 42.5 | 12.2 |  | O=C1CCC(N2Cc3c(NC(=O)CNc4ccnc(Nc5ccc6c(c5)OCO6)n4)cccc3C2=O)C(=O)N1 (centres unmarked) [Compound 5, 2-((2-(benzo[d][1,3]dioxol-5-ylamino)pyrimidin-4-yl)amino)-N-(2-(2,6-dioxopiperidin-3-yl)-1-oxoisoindolin-4-yl)acetamide]
8 | 28.9 | 8.3 |  | O=C1CCC(N2Cc3c(NC(=O)CNc4ccnc(-c5cc6ccccc6o5)n4)cccc3C2=O)C(=O)N1 (centres unmarked) [Compound 13, 2-((2-(benzofuran-2-yl)pyrimidin-4-yl)amino)-N-(2-(2,6-dioxopiperidin-3-yl)-1-oxoisoindolin-4-yl)acetamide]
9 | 15.2 | 4.3 |  | COc1ccccc1Nc1nccc(NCC(=O)Nc2cccc3c2CN(C2CCC(=O)NC2=O)C3=O)n1 (centres unmarked) [Compound 15, N-(2-(2,6-dioxopiperidin-3-yl)-1-oxoisoindolin-4-yl)-2-((2-((2-methoxyphenyl)amino)pyrimidin-4-yl)amino)acetamide]
10 | 38.9 | 11.1 |  | COc1ccc(Nc2nccc(NCC(=O)Nc3cccc4c3CN(C3CCC(=O)NC3=O)C4=O)n2)cc1 (centres unmarked) [Compound 7, N-(2-(2,6-dioxopiperidin-3-yl)-1-oxoisoindolin-4-yl)-2-((2-((4-methoxyphenyl)amino)pyrimidin-4-yl)amino)acetamide]
11 | 3.44 | 0.97 |  | CN(c1ccccc1)c1nccc(NCC(=O)Nc2cccc3c2CN(C2CCC(=O)NC2=O)C3=O)n1 (centres unmarked) [Compound 17, N-(2-(2,6-dioxopiperidin-3-yl)-1-oxoisoindolin-4-yl)-2-((2-(methyl(phenyl)amino)pyrimidin-4-yl)amino)acetamide]
12 |  |  | 1.86 | COc1ccc(-c2nccc(Nc3cccc4c3CN(C3CCC(=O)NC3=O)C4=O)n2)c(OC)c1 (centres unmarked) [Compound 35, 3-(4-((2-(2,4-dimethoxyphenyl)pyrimidin-4-yl)amino)-1-oxoisoindolin-2-yl)piperidine-2,6-dione]
